Among the data in ChEMBL document CHEMBL2390909, “2-Arylpaullones are selective antitrypanosomal agents” (Eur J Med Chem, 2013) are RatioGI50 and GI50 values, retold here.

A short description of data set [1]: Selectivity index, ratio of GI50 for human THP1 macrophages to GI50 for blood stage of Trypanosoma brucei rhodesiense STIB 900.
Data set [2] is described as follows: Cytotoxicity against human THP1 macrophages after 48 hrs by Alamar Blue assay. Type of data set: cell-based. The conditions noted are these: THP-1 macrophages.
In data set [3] the test system is Trypanosoma brucei rhodesiense. The data set can be described thus: Antitrypanosomal activity against blood stage of Trypanosoma brucei rhodesiense STIB 900 (S704) Tanzania after 70 hrs by Alamar Blue assay. The conditions noted are these: STIB 900, 70 h. Type of data set: functional. (In general: Resazurin is reduced to fluorescent resorufin, in cell work by metabolically active cells.)

Take `CC(C)(C)c1ccc2[nH]c3c(c2c1)CC(=O)Nc1ccc(C(=O)/C=C/c2ccccc2)cc1-3`: in data set [1], the RatioGI50 is recorded as >163.9. The concentration for 50% growth inhibition (GI50) at 48 h in data set [2] is > 100 µM. Also, it took 610 nM to inhibit growth in data set [3] by half (GI50).

Consider `COc1ccc(-c2ccc3c(c2)-c2[nH]c4ccc(C(C)(C)C)cc4c2CC(=O)N3)cc1`, for which, in data set [1], the RatioGI50 is recorded as >138.9. In addition, in data set [2], the GI50 at 48 h was > 100 µM. Also, growth in data set [3] was halved (GI50) at 720 nM.

Consider `COc1cccc(-c2ccc3c(c2)-c2[nH]c4ccc(C(C)(C)C)cc4c2CC(=O)N3)c1`, for which the RatioGI50 in data set [1] is >62.5. Also, the 50% growth inhibitory concentration (GI50) at 48 h in data set [2] was > 100 µM. In addition, in data set [3], the GI50 was determined as 1600 nM.

On to `CN(C)c1cccc(-c2ccc3c(c2)-c2[nH]c4ccc(C(C)(C)C)cc4c2CC(=O)N3)c1`, for which, in data set [1], the RatioGI50 is on record as 40.8. Moreover, the GI50 at 48 h in data set [2] stood at 93.9 µM. Also, in data set [3], the concentration for 50% growth inhibition (GI50) was determined as 2300 nM.

On to `CC(C)(C)c1ccc2[nH]c3c(c2c1)CC(=O)Nc1ccc(-c2ccc4c(c2)OCO4)cc1-3`, for which the RatioGI50 in data set [1] is reported as >131.6. Besides, the GI50 at 48 h in data set [2] is > 100 µM. For the same compound, in data set [3], the 50% growth inhibitory concentration (GI50) came to 760 nM.

Take `CC(C)(C)c1ccc2[nH]c3c(c2c1)CC(=O)Nc1ccc(-c2ccc(N4CCOCC4)cc2)cc1-3`: the RatioGI50 in data set [1] is listed as 156.9. The same compound had a GI50 at 48 h in data set [2] of 80 µM. For the same compound, the 50% growth inhibitory concentration (GI50) in data set [3] was 510 nM.

Consider `CC(C)(C)c1ccc2[nH]c3c(c2c1)CC(=O)Nc1ccc(CCC(=O)c2ccccc2)cc1-3`, for which the RatioGI50 in data set [1] is >88.8. In data set [2], the 50% growth inhibitory concentration (GI50) at 48 h was > 100 µM. Also, in data set [3], the GI50 was determined as 2300 nM.

On to `CC(C)(C)c1ccc2[nH]c3c(c2c1)CC(=O)Nc1ccc(/C=C/C(=O)N2CCOCC2)cc1-3`, for which, in data set [1], the RatioGI50 was found to be 3.5. The compound further gave a GI50 at 48 h in data set [2] of 13.7 µM. The same compound gave a concentration for 50% growth inhibition (GI50) in data set [3] of 3900 nM.

In the case of `CC(C)(C)c1ccc2[nH]c3c(c2c1)CC(=O)Nc1ccc(/C=C/C(=O)N2CCCCC2)cc1-3`, the RatioGI50 in data set [1] came out at 1.3. Also, in data set [2], halving of growth (GI50 at 48 h) required 6.2 µM. In data set [3], this compound showed a GI50 of 4700 nM.

For `CCN(CC)C(=O)/C=C/c1ccc2c(c1)-c1[nH]c3ccc(C(C)(C)C)cc3c1CC(=O)N2`, in data set [1], the RatioGI50 was 3.7. For the same compound, it took 4.1 µM to inhibit growth in data set [2] by half (GI50 at 48 h). Further, halving of growth in data set [3] (GI50) required 1100 nM.

As to `CC(C)(C)c1ccc2[nH]c3c(c2c1)CC(=O)Nc1ccc(/C=C/C(=O)NCc2ccccc2)cc1-3`, the RatioGI50 in data set [1] is <1. Besides, growth in data set [2] was halved (GI50 at 48 h) at 0.93 µM. In addition, in data set [3], the concentration for 50% growth inhibition (GI50) was 3500 nM.

With `CN1CCN(C(=O)/C=C/c2ccc3c(c2)-c2[nH]c4ccc(C(C)(C)C)cc4c2CC(=O)N3)CC1`, in data set [1], the RatioGI50 is <1. Besides, in data set [2], the GI50 at 48 h came to 17.8 µM. The GI50 in data set [3] turned out to be 24400 nM.

`CC(C)(C)c1ccc2[nH]c3c(c2c1)CC(=O)Nc1ccc(/C=C/C(=O)Nc2ccccc2)cc1-3`: the RatioGI50 in data set [1] is reported as <1. In data set [2], the GI50 at 48 h was found to be 0.34 µM. In data set [3], this compound gave a GI50 of 1500 nM.

On to `CC(C)(C)c1ccc2[nH]c3c(c2c1)CC(=O)Nc1ccc(/C=C/C(=O)Nc2cccc(Cl)c2)cc1-3`, for which the RatioGI50 in data set [1] is given as <1. The same compound displayed a concentration for 50% growth inhibition (GI50) at 48 h in data set [2] of 0.85 µM. The compound further returned a GI50 in data set [3] of 1600 nM.

Take `CC(C)(C)c1ccc2[nH]c3c(c2c1)CC(=O)Nc1ccc(/C=C/C(=O)Nc2ccc(Cl)cc2)cc1-3`: the RatioGI50 in data set [1] is given as <1. In data set [2], this compound gave a GI50 at 48 h of 0.47 µM. In addition, in data set [3], halving of growth (GI50) required 2500 nM.

As for `Cc1ccc(NC(=O)/C=C/c2ccc3c(c2)-c2[nH]c4ccc(C(C)(C)C)cc4c2CC(=O)N3)cc1`, the RatioGI50 in data set [1] is recorded as <1. The same compound returned a concentration for 50% growth inhibition (GI50) at 48 h in data set [2] of 1.3 µM. In data set [3], this compound returned a GI50 of 1700 nM.

On to `COc1ccc(NC(=O)/C=C/c2ccc3c(c2)-c2[nH]c4ccc(C(C)(C)C)cc4c2CC(=O)N3)cc1`, for which the RatioGI50 in data set [1] is <1. In addition, the GI50 at 48 h in data set [2] turned out to be 0.36 µM. Also, the GI50 in data set [3] is 1500 nM.

Take `CC(C)(C)c1ccc2[nH]c3c(c2c1)CC(=O)Nc1ccc(-c2ccccc2)cc1-3`: the RatioGI50 in data set [1] was >55.6. Besides, in data set [2], the GI50 at 48 h is > 100 µM. In data set [3], the GI50 amounted to 1800 nM.

Turning to `COCCc1ccc(OCc2cccc(-c3ccc4c(c3)-c3[nH]c5ccc(C(C)(C)C)cc5c3CC(=O)N4)c2)cc1`, in data set [1], the RatioGI50 stood at 7.6. The GI50 at 48 h in data set [2] worked out at 12.9 µM. Further, the concentration for 50% growth inhibition (GI50) in data set [3] is 1700 nM.

As to `CC(C)(C)c1ccc2[nH]c3c(c2c1)CC(=O)Nc1ccc(-c2ccc(C(F)(F)F)cc2)cc1-3`, the RatioGI50 in data set [1] stood at 21.2. In addition, in data set [2], the GI50 at 48 h amounted to 55.1 µM. In data set [3], this compound returned a GI50 of 2600 nM.

Regarding `CC(C)(C)c1ccc2[nH]c3c(c2c1)CC(=O)Nc1ccc(-c2ccc(OC(F)(F)F)cc2)cc1-3`, the RatioGI50 in data set [1] is >33.3. Also, the 50% growth inhibitory concentration (GI50) at 48 h in data set [2] is > 100 µM. This compound also returned a concentration for 50% growth inhibition (GI50) in data set [3] of 3000 nM.

In the case of `CC(C)(C)c1ccc2[nH]c3c(c2c1)CC(=O)Nc1ccc(/C=C/C(=O)c2ccccc2)cc1-3`, the RatioGI50 in data set [1] is on record as 4.4. For the same compound, it took 17.6 µM to inhibit growth in data set [2] by half (GI50 at 48 h). In addition, it took 4000 nM to inhibit growth in data set [3] by half (GI50).

Turning to `COc1ccc(C(=O)/C=C/c2ccc3c(c2)-c2[nH]c4ccc(C(C)(C)C)cc4c2CC(=O)N3)cc1`, in data set [1], the RatioGI50 was 2.7. Halving of growth in data set [2] (GI50 at 48 h) required 32.6 µM. Further, it took 12200 nM to inhibit growth in data set [3] by half (GI50).

`CC(C)(C)c1ccc2[nH]c3c(c2c1)CC(=O)Nc1ccc(/C=C/C(=O)c2ccc(Cl)cc2)cc1-3`: the RatioGI50 in data set [1] is reported as 2.2. For the same compound, it took 40.8 µM to inhibit growth in data set [2] by half (GI50 at 48 h). This compound also showed a GI50 in data set [3] of 18300 nM.

With `CC(C)(C)c1ccc2[nH]c3c(c2c1)CC(=O)Nc1ccc(/C=C/C(=O)c2ccco2)cc1-3`, the RatioGI50 in data set [1] came to 2.3. Besides, the GI50 at 48 h in data set [2] is 1.3 µM. In data set [3], the 50% growth inhibitory concentration (GI50) is 570 nM.

Turning to `CC(C)(C)c1ccc2[nH]c3c(c2c1)CC(=O)Nc1ccc(/C=C/C(=O)c2cccnc2)cc1-3`, the RatioGI50 in data set [1] is on record as 8.7. For the same compound, in data set [2], the GI50 at 48 h was 47.9 µM. For the same compound, it took 9000 nM to inhibit growth in data set [3] by half (GI50).

As to `COc1cc(C(=O)/C=C/c2ccc3c(c2)-c2[nH]c4ccc(C(C)(C)C)cc4c2CC(=O)N3)cc(OC)c1OC`, the RatioGI50 in data set [1] stood at 5.6. In data set [2], this compound yielded a 50% growth inhibitory concentration (GI50) at 48 h of 14.7 µM. In addition, growth in data set [3] was halved (GI50) at 2600 nM.

For the compound `COc1ccc(OC)c(C(=O)/C=C/c2ccc3c(c2)-c2[nH]c4ccc(C(C)(C)C)cc4c2CC(=O)N3)c1`, the RatioGI50 in data set [1] amounted to 1.8. Moreover, in data set [2], the concentration for 50% growth inhibition (GI50) at 48 h was 2.2 µM. Further, the 50% growth inhibitory concentration (GI50) in data set [3] came to 1200 nM.

With `COc1ccc(C(=O)/C=C/c2ccc3c(c2)-c2[nH]c4ccc(C(C)(C)C)cc4c2CC(=O)N3)c(OC)c1`, the RatioGI50 in data set [1] is recorded as 5.8. Besides, in data set [2], the GI50 at 48 h is 31.4 µM. In data set [3], growth was halved (GI50) at 5400 nM.

Turning to `COc1ccc(C(=O)/C=C/c2ccc3c(c2)-c2[nH]c4ccc(C(C)(C)C)cc4c2CC(=O)N3)cc1OC`, in data set [1], the RatioGI50 turned out to be 2.3. In addition, it took 9.6 µM to inhibit growth in data set [2] by half (GI50 at 48 h). This compound came in with a GI50 in data set [3] of 4200 nM.

For `CC(C)(C)c1ccc2[nH]c3c(c2c1)CC(=O)Nc1ccc(/C=C/C(=O)c2cccs2)cc1-3`, the RatioGI50 in data set [1] was 3.4. The GI50 at 48 h in data set [2] stood at 3.7 µM. This compound also displayed a concentration for 50% growth inhibition (GI50) in data set [3] of 1100 nM.

Regarding `CC(C)(C)c1ccc2[nH]c3c(c2c1)CC(=O)Nc1ccc(/C=C/C(=O)c2ccc(O)cc2)cc1-3`, in data set [1], the RatioGI50 worked out at 9.8. In data set [2], this compound registered a 50% growth inhibitory concentration (GI50) at 48 h of 72.6 µM. The compound also displayed a GI50 in data set [3] of 7400 nM.

For orientation: GI50 means the concentration that inhibits growth by half. Higher therefore signals less potent growth inhibition.
